Data published in a melting point compilation (Tetko et al.; mined from patent text by program, amines drawn as free bases though some values may be those of a salt).

melting point	SMILES
188 to 189 °C	Cc1nc2c(-c3ccc(-c4ccccc4)cc3)nc3ccc(F)cc3c2c(=O)o1
153 to 155 °C	CCN(CC)C(=O)Nc1ccc(NCc2ccccc2Cl)cc1N
268 to 269 °C	Cn1ncnc1COc1nn2c(-c3ccc(F)cc3)nnc2cc1-c1ccsc1
199 to 201 °C	O=C(O)C=CC(=O)c1cccc([N+](=O)[O-])c1
89 to 91 °C	O=[N+]([O-])C[C@@H](O)[C@H](O)[C@@H](O)[C@@H](O)CO
117 to 120 °C	COC(=O)CCc1ccc(N(c2ccc(-c3ccc(N(c4ccc(CCC(=O)OC)cc4)c4cccc5ccccc45)cc3)cc2)c2cccc3ccccc23)cc1
277 to 280 °C	COc1ccc2c(c1)c1c3c(c(-c4ccccc4Cl)cc1n2C(C)=O)C(=O)NC3=O
113 to 115 °C	CCCCCCC1CCC(C(=O)Nc2c(C(C)C)cccc2C(C)C)C(=O)O1 (stereo not given)
160 °C	Cc1nc2ccccn2c(=O)c1CCN1CCC(c2coc3cc(F)ccc23)CC1
89 to 91 °C	Clc1ncn(CCOc2ccc(Oc3ccccc3)cc2)c1Cl
> 260 °C	Cc1nc2cccnc2c(O)c1C(=O)c1ccccc1
101 to 105 °C	C=CCOC(=O)N1C[C@@H](S)C[C@H]1CNC(=O)c1ccc(C(=O)NCc2ccc(Cl)c(Cl)c2)cn1
146 to 147 °C	COc1c(C(=O)O)sc(C(F)(F)F)c1SCc1ccccc1
195 to 197 °C	COc1ccc(C(=O)Nc2ccccc2)cc1NS(=O)(=O)c1cccc(C#N)c1
192 to 194 °C	COc1ccnc(C(=O)N[C@H]2COC(=O)[C@H](CC(=O)OC(C)(C)C)[C@@H](OC(=O)C(C)C)[C@H](C)OC2=O)c1O
260 to 270 °C	CC(C)(C)c1cc(C2NNC(=S)N2N)cc(C(C)(C)C)c1O (stereo not given)
169 to 171 °C	O=S(=O)(c1ccc(-n2cccn2)cc1)N1CCC(CNCC(O)COc2ccc(O)cc2)CC1 (stereo not given)
133 to 135 °C	COc1ccc(C(=CC=Cc2ccc(N(c3ccc(C)cc3)c3ccc(C)cc3)cc2)c2ccc(OC)cc2)cc1
164 to 166 °C	COc1ccc(OC)c(NC(=O)NCC2(c3ccccc3)CCCCC2)c1
142 °C	COc1ccc(CN2CCN(C3=NC4(C=CC(=O)C=C4)C(c4ccc(OC)cc4)=C3)CC2)cc1
134 °C	CCOC(Cn1cc[nH]c1=O)c1ccc(OC)c(OC)c1 (stereo not given)
60 to 70 °C	Cc1ccc(S(=O)(=O)N2C(=O)N(c3ccc(Cl)cc3)C(C)(O)C2O)cc1 (stereo not given)
213 to 215 °C	CCOCc1nc2c(N)nc3cc(-c4cccnc4)ccc3c2n1CCNC(=O)C(C)C

melting point	SMILES
51 to 54 °C	C=CCOc1nc(SC)nc(NC(C)C)c1[N+](=O)[O-]
189 to 190 °C	COC(=O)c1cn(C(c2ccccc2)(c2ccccc2)c2ccccc2)nn1
77 to 80 °C	CCNC(=O)c1sc(C)c(C)c1[Si](C)(C)C
132 °C	CC(C)(C)c1ncc(O)cn1
286 to 287 °C	COc1ccc(S(=O)(=O)c2cc3c(cc2OC)OC(C)(C)[C@@H](O)[C@@H]3N2CCCC2=O)cc1 (relative stereo)
115 to 119 °C	Oc1ccc(C2=CCCCC2)cc1
69 to 71 °C	CN(C)C(=O)CCCCCCCCCCCCO
116 to 118 °C	OCCON=Cc1ccc(-c2ccccc2)cc1
102 °C	CC(=O)c1cc(I)c2c(c1)C=CC(C)(C)O2
239 to 240 °C	COc1ccc2[nH]cc(CC(=O)N3CCN(c4ccc([N+](=O)[O-])cc4)CC3)c2c1
187 to 202 °C	Nc1cccc(-c2ccc(C3(O)C4CCC3CN(Cc3ccco3)C4)cc2)n1 (stereo not given)
> 200 °C	N#Cc1c(N2CCc3ccccc3CC2)nc(NCC(F)(F)F)n(CC(F)(F)F)c1=O
175 °C	C#Cc1cn(C2CC(O)C(CO)O2)c(=O)[nH]c1=O (stereo not given)
208 to 210 °C	Cc1c(-c2ccc(O)cc2)sc(C=O)c1-c1cccc(O)c1
170 to 173 °C	COC(=O)c1ccc(-c2ccc(OC)cc2)cc1
259 to 260 °C	COc1ccc2c(c1)c(-c1cc3c(C(=O)N4CCOCC4)ccnc3[nH]1)cn2C
92 to 94 °C	O=C(O)COc1ccc(SCc2cc(-c3ccc(Cl)cc3)no2)c2c1CCC2
285 to 289 °C	Nc1ncc(S(=O)(=O)Nc2ccc(Br)c3c(Cl)c[nH]c23)cn1
158 to 160 °C	COc1cc(-c2ccsc2)cc2oc(=O)c(C)c(C)c12
69 to 71 °C	Cc1ccc([N+](=O)[O-])c(C)c1C1OCCO1
103 to 104 °C	COC(=O)c1scc(-c2ccccc2)c1-c1ccc(SCOC(C)=O)c(F)c1
210 to 212 °C	O=[N+]([O-])c1cccc(Oc2cccc(-c3nnc(Nc4ccc(Cl)c(Cl)c4)s3)c2)c1
190 to 192 °C	CC(=NO)C1CCC2C3CC=C4C(C)(C)C(=O)C(C#N)CC4(C)C3CCC12C (stereo not given)

melting point	SMILES
161 to 162 °C	COc1cc(COc2nn(-c3ccccc3)cc2C=O)ccc1OCc1nc(-c2cccnc2)oc1C
106 to 107 °C	CCc1noc(CN2C(=O)c3ccccc3C2=O)n1
174 to 177 °C	C[C@@H]1Cc2ccsc2[C@H](C)N1CCNC(=O)c1ccc(NC(=O)C(F)(F)F)cc1 (relative stereo)
173 to 175 °C	COc1cc(N)c(Cl)cc1C(=O)NC1C=NN(C)C1 (stereo not given)
144 to 146 °C	COc1ccc(CC(NC(C)=O)C(=O)O)cc1 (racemic)
146 to 149 °C	CC1C(=O)N(c2cc(Cl)cc(Cl)c2)CS1=O (stereo not given)
141 to 142 °C	NC(=O)N(O)Cc1cc(Oc2ccc(Cl)cc2)cs1
191 to 193 °C	Cc1nccn1CCC(C(N)=O)(c1ccccc1)c1ccccc1
143 to 145 °C	COc1ccc(NC(NC(c2ccc(CC(C)(C)C)s2)C2CCCCC2)=C2C(=O)OC(C)(C)OC2=O)c(OC)c1 (stereo not given)
279 to 281 °C	CCOC(=O)c1c[nH]c2nc(N3CCN(C(=O)OCC)CC3)c(F)cc2c1=O
72 to 74 °C	CC#CCOc1ccc(S(=O)(=O)NC(CO)C(=O)OC)cc1 (stereo not given)
171 to 172 °C	COc1ccc(COc2ccc(C(=O)O)cc2OCc2ccc(OC)cc2)cc1
65 to 70 °C	CCCCS(=O)(=O)N(CCN(CC)CC)c1ccc(C(Cl)=C(c2ccccc2)c2ccccc2)cc1
140 to 143 °C	Cc1ccc(NC(=O)c2cccnc2Oc2cccc(Cl)c2)cc1
184 to 185 °C	Cc1ccc(-c2ccc(C(=O)c3ccc(Cl)cc3Cl)cc2)cc1
224 to 225 °C	O=C(Nc1ccc(C(=O)N2Cc3ccccc3Cc3ccccc32)cc1)c1ccccc1-c1ccccc1
185 to 191 °C	CCC1(CC(=O)O)CCC(c2ccccc2)c2c1n(C)c1cc(OCc3ccc4ccccc4n3)ccc21 (stereo not given)
196 to 198 °C	COc1cc(N)c(Cl)cc1Cn1nc(-c2ccc(Cl)c(Cl)c2)oc1=O
149 to 151 °C	Oc1cc(O)c2c(-c3cc(F)cc(F)c3)coc2c1
150 to 151 °C	COC(=O)CS(=O)Cc1cccc(-c2nc(=O)c3ccccc3s2)n1 (stereo not given)
145 to 153 °C	O=C1C2C3CCC(C4CC43)C2C(=O)N1c1cc(Cl)cc(Cl)c1 (stereo not given)
110 to 111 °C	O=C(CCCc1ccccc1)N[C@H](Cc1cccc(C(F)(F)F)c1)[C@@H](O)c1ccc(F)cc1 (racemic)
243 to 245 °C	O=C1NCC(c2ccsc2)SCC1N1C(=O)c2ccccc2C1=O (stereo not given)

melting point	SMILES
133 to 134 °C	CCOC(=O)C1=C(C)NC(C)=C(C(=O)c2ccco2)C1c1ccccc1[N+](=O)[O-] (stereo not given)
168 to 174 °C	CC(=O)Nc1ccc(SC2SCC(OC(C)=O)C(OC(C)=O)C2OC(C)=O)cc1 (stereo not given)
215 °C	CC(=O)Nc1ccc(C(=O)c2ccncc2)cc1
146 to 148 °C	CC(=O)COc1ccc2c(C)cc(=O)oc2c1
126 to 128 °C	CN(CC(=O)Nc1ccc(Cl)cc1)C(=O)OC(C)(C)C
94 to 96 °C	CC(C)(c1ccc(Oc2cccc(N)c2)cc1)c1cccc(C(C)(C)c2ccc(Oc3cccc(N)c3)cc2)c1
113 to 114 °C	CC(C)(C)c1cc(CCc2ccccc2NC(=O)N2CCCCC2CCOCc2ccccc2)cc(C(C)(C)C)c1O (stereo not given)
117 to 118 °C	Cc1ccc(C2c3c(C)cc(C)c(C)c3OC2(C)C)cc1 (stereo not given)
140 to 141 °C	CC(=O)Nc1ccc(Sc2ccc(F)cc2)cc1
175 to 178 °C	N#Cc1ccc(Nc2nc(Cl)ccc2[N+](=O)[O-])cc1
> 280 °C	N#CC1=C(c2cccs2)Nc2n[nH]cc2C1c1cccc(C#N)c1Br (stereo not given)
102 to 103 °C	O=Cc1cc(-c2cccs2)ccc1O
80 to 81 °C	CCCCCCCCC(C)C(N)=O (stereo not given)
101 to 102 °C	O=C(C=Cc1cncnc1)CCCCc1ccc2c(n1)NCCC2
75 °C	CC(=O)CCNc1ccc(-c2cc(-c3ccc(C(=O)O)cc3)ccc2OCCCCO)cc1C(C)(C)C
103 to 104 °C	OCCc1ccc2cc(Br)ccc2n1
200 °C	Cn1cncc1C(O)(c1ccc(F)cc1)c1ccc2c(c1)c(-c1cccc(Cl)c1)nc1nnnn12 (stereo not given)
126 to 128 °C	CC(C)n1nnnc1-c1ccc(N)c([N+](=O)[O-])c1
209 to 210 °C	COC(=O)c1ccc2nc3c(C)sc(C)c3c(=O)n2c1
126 to 127 °C	CCCCc1nc2cccc(C(=O)OC)c2n1Cc1ccc(-c2ccccc2CO)cc1
249 to 250 °C	O=C(O)C1Cc2ccccc2N1c1ncccn1 (stereo not given)
248 to 249 °C	CC(C)(C)c1cc(Sc2nnc(NC(=N)N)s2)cc(C(C)(C)C)c1O
> 300 °C	Cc1c(-c2cncn2C)[nH]c(=O)c2c1ccc1nc(Nc3c(Cl)cccc3Cl)n(C)c12

SMILES	melting point
O=C1NC(=O)c2c(Sc3ccc([N+](=O)[O-])cc3)c(Sc3ccc([N+](=O)[O-])cc3)c(Sc3ccc([N+](=O)[O-])cc3)c(Sc3ccc([N+](=O)[O-])cc3)c21	297 to 301 °C
CN(C)C(=O)c1ccc(C(=O)CS(=O)(=O)C(c2ccc(Cl)cc2)c2ccc(Cl)cc2)s1	192 to 194 °C
CN1C(=O)CN(C=O)C(c2ccccc2)c2cc(Cl)ccc21 (stereo not given)	167 to 169 °C
